Values quoted from earlier work as cited in patent US20160330969A1, “ANTIMICROBIAL COMPOSITIONS AND ARTICLES” (priority 2013, published 2016).

Settings: decomposition to chlorite and chlorate species, pH 5-8 region

OCl [HOCl, hypochlorous acid]
pH of maximum rate of decomposition: 6.89
